Assay type in all cases: cell-based
Data set [1] concerns Klebsiella pneumoniae ATCC 13883 (sensitive). From the text:
(§1) All microorganisms were purchased from the American Type Culture Collection (ATCC). To determine the antibacterial activity of synthetic peptides against HCAI bacteria, the Staphylococcus aureus strains ATCC 25923 and ATCC 33591 were employed as sensitive and resistant strains, respectively, of a Gram-positive microorganisms species, and Klebsiella pneumoniae ATCC 13883 and ATCC 700603 as sensitive and resistant strains of a Gram-negative species.
(§2) The antibacterial activity assay for peptides and controls was performed according to the National Committee for Clinical Laboratory Standards method M7-A7 [11]. MIC and MBC values were determined using a broth microdilution and growth inhibition method with some modification. Briefly, MIC assays were performed by liquid inhibition growth assay in an untreated sterile 96-well flat-bottom tissue culture plate. Bacteria were cultured overnight on Mueller-Hinton agar (MHA). Three colonies were transferred to 8 mL of Mueller-Hinton broth (MHB) and incubated at 37°C until the mid-exponential phase of growth. The turbidity of the cultures was measured and adjusted spectrophotometrically to McFarland standard 0.5, then diluted to a final concentration of […]. Synthetic antibacterial peptide candidate stock solutions were diluted to final concentrations per well of 200, 100, 50, 25, 12.5, and 6.25 μM. […]
(§3) Wells containing MHB with bacterial inoculum only served as bacterial growth controls. Additional controls included MHB alone and MHB with ciprofloxacin (CIP) (2 μg/mL) and bacteria as a positive control. The microplate was incubated for 24 h at 37°C, and growth inhibition was examined by monitoring the optical density at 620 nm (OD620). MIC was defined as the lowest peptide concentration that inhibited bacteria growth >90%.

Data set [2] concerns Klebsiella pneumoniae ATCC 700603 (resistant).
Source text: as §1, §2, §3

The test system of data set [3] is Staphylococcus aureus ATCC 25923 (sensitive).
Source text: as §1, §2, §3

Data set [4] concerns Staphylococcus aureus ATCC 33591 (resistant).
Source text: as §1, §2, §3

Data set [5] has as its system Klebsiella pneumoniae ATCC 13883 (sensitive).
Source text: as §1
(§4) To determine the MBC, an aliquot from each well of the MIC assay was spread onto MHA. After 18 h at 37°C, the concentration that inhibited bacterial growth was determined. Each of these tests was performed four times. MBC was defined as the lowest concentration of peptide that reduced the number of bacteria by 99.9% in vitro [12].
This is another data set of the same source.

Data set [6] concerns Klebsiella pneumoniae ATCC 700603 (resistant).
Source text: as §1, §4
The source holds these as a separate data set.

In data set [7] the test system is Staphylococcus aureus ATCC 25923 (sensitive).
Source text: as §1, §4
This is another data set of the same source.

Data set [8] concerns Staphylococcus aureus ATCC 33591 (resistant).
Source text: as §1, §4
The source holds these as a separate data set.

The next data set concerns human erythrocytes. Nature of the data set: Haemolytic activity. The conditions noted are these: 6.25-100 μM peptide; human erythrocytes 2% haematocrit in PBS, 2 h 37°C, OD492; n = 2. Here is the method:
Human erythrocytes collected from the blood samples of healthy humans were harvested by centrifugation for 7 min at 162 ×g and washed three times in phosphate-buffered saline (PBS). The erythrocytes (2% haematocrit in PBS) were incubated with peptide molecules at several concentrations (6.25, 12.5, 25, 50, and 100 μM), for 2 h at 37°C. PBS was used as a negative control, and sterile distilled water was used as a positive control for haemolysis (100% of haemolysis). The plate was subsequently centrifuged at 1459 ×g for 10 min at 4°C. Aliquots of the supernatants of each well (75 μL) were carefully transferred to a new sterile 96-well plate, and haemolytic activity was evaluated by measuring the OD492 using an Asys Expert Plus Microplate reader. The experiments were performed in duplicate, and peptide haemolysis activity was calculated.
Lastly, to evaluate the effects of the peptides on normal human erythrocytes, their haemolysis activity was investigated (Figure 6). The percentage of haemolytic activity on human red blood cells after 2 hours was determined via the standard microtitre dilution method. The peptide concentration is reported as μM.

Where two headings read alike, the source gives them in different places. Positions of bridges follow the written chain, without caps; N, C: chain ends. Non-standard residues stand in square brackets, D forms with d. Residues, ends and D or L forms follow the SMILES beside them. Chains are numbered I, II in the order given. No end group written: not given here. Ahx = NCCCCCC(=O)O Bounds are passed on as bounds.

Take RWQWRWQWR [Palindromic]: the MIC in data set [1] (ATCC 13883, 24 h) is 50 µM; in [2] (ATCC 700603, 24 h), 50 µM; in [3] (ATCC 25923, 24 h) it was 50 µM; in data set [4] (ATCC 33591, 24 h), 6.25 µM. The MBC was determined as 100 µM in [5] (ATCC 13883, 18 h); 100 µM in [6] (ATCC 700603, 18 h); 100 µM in data set [7] (ATCC 25923, 18 h); 50 µM in data set [8] (ATCC 33591, 18 h).
As to `N=C(N)NCCC[C@H](NC(=O)[C@H](Cc1c[nH]c2ccccc12)NC(=O)[C@H](CCC(N)=O)NC(=O)[C@H](Cc1c[nH]c2ccccc12)NC(=O)[C@H](CCCNC(=N)N)NC(=O)[C@@H](N)CCCNC(=N)N)C(=O)NCCCC[C@H](NC(=O)[C@H](CCCNC(=N)N)NC(=O)[C@H](Cc1c[nH]c2ccccc12)NC(=O)[C@H](CCC(N)=O)NC(=O)[C@H](Cc1c[nH]c2ccccc12)NC(=O)[C@H](CCCNC(=N)N)NC(=O)[C@@H](N)CCCNC(=N)N)C(=O)NCCCCCC(=O)N[C@@H](CSSC[C@H](NC(=O)CCCCCNC(=O)[C@H](CCCCNC(=O)[C@H](CCCNC(=N)N)NC(=O)[C@H](Cc1c[nH]c2ccccc12)NC(=O)[C@H](CCC(N)=O)NC(=O)[C@H](Cc1c[nH]c2ccccc12)NC(=O)[C@H](CCCNC(=N)N)NC(=O)[C@@H](N)CCCNC(=N)N)NC(=O)[C@H](CCCNC(=N)N)NC(=O)[C@H](Cc1c[nH]c2ccccc12)NC(=O)[C@H](CCC(N)=O)NC(=O)[C@H](Cc1c[nH]c2ccccc12)NC(=O)[C@H](CCCNC(=N)N)NC(=O)[C@@H](N)CCCNC(=N)N)C(N)=O)C(N)=O` [Tetrameric] (I: H-RRWQWRK[Ahx]C-NH2 / II: H-RRWQWRK[Ahx]C-NH2 / III: H-RRWQWR / IV: H-RRWQWR; amide I:7-III:C, II:7-IV:C; disulfide I:9-II:9), the MIC in [1] (ATCC 13883, 24 h) was 6.25 µM; in data set [1] (K. pneumoniae ATCC 13883 sensitive, MHB, 24 h 37°C, OD620, >90% inhibition, average of four independent experiments in duplicate), 29 µg/mL; in data set [1] (K. pneumoniae ATCC 13883 sensitive, MHB, 24 h 37°C, OD620, >90% inhibition, average of four independent experiments in duplicate, listed as tetrameric), at least 29 µg/mL; in data set [1] (K. pneumoniae ATCC 13883 sensitive, value in parentheses, MHB, 24 h 37°C, OD620, >90% inhibition) it was ≥ 6,25 µM; in data set [2] (ATCC 700603, 24 h) it was 12.5 µM; in [2] (K. pneumoniae ATCC 700603 resistant, MHB, 24 h 37°C, OD620, >90% inhibition, average of four independent experiments in duplicate), 57 µg/mL. The MIC is reported as at least 57 µg/mL in data set [2] (K. pneumoniae ATCC 700603 resistant, MHB, 24 h 37°C, OD620, >90% inhibition, average of four independent experiments in duplicate, listed as tetrameric); ≥ 12,5 µM in [2] (K. pneumoniae ATCC 700603 resistant, value in parentheses, MHB, 24 h 37°C, OD620, >90% inhibition); 6.25 µM in data set [3] (ATCC 25923, 24 h); 29 µg/mL in data set [3] (S. aureus ATCC 25923 sensitive, MHB, 24 h 37°C, OD620, lowest concentration inhibiting growth >90%, average of four independent experiments in duplicate); at least 29 µg/mL in [3] (S. aureus ATCC 25923 sensitive, MHB, 24 h 37°C, OD620, lowest concentration inhibiting growth >90%, average of four independent experiments in duplicate, listed as tetrameric); at least 6.25 µM in [3] (S. aureus ATCC 25923 sensitive, value in parentheses, MHB, 24 h 37°C, OD620, >90% inhibition, average of four independent experiments in duplicate). Besides, the MIC in data set [4] (ATCC 33591, 24 h) was 12.5 µM; in data set [4] (S. aureus ATCC 33591 resistant, MHB, 24 h 37°C, OD620, >90% inhibition, average of four independent experiments in duplicate), 57 µg/mL; in [4] (S. aureus ATCC 33591 resistant, MHB, 24 h 37°C, OD620, >90% inhibition, average of four independent experiments in duplicate, listed as tetrameric) it was at least 57 µg/mL; in data set [4] (S. aureus ATCC 33591 resistant, value in parentheses, MHB, 24 h 37°C, OD620, >90% inhibition) it was at least 12.5 µM. In addition, the “concentration at which antibacterial activity was displayed (dose-response profile)” value in [3] (S. aureus sensitive strain, Figure 2) was at least 29 µg/mL. The MBC is reported as 25 µM in [5] (ATCC 13883, 18 h); 115 µg/mL in data set [5] (K. pneumoniae ATCC 13883 sensitive, MHA, 18 h 37°C, 99.9% reduction); at least 115 µg/mL in [5] (K. pneumoniae ATCC 13883 sensitive, MHA, 18 h 37°C, 99.9% reduction, listed as tetrameric); at least 25 µM in data set [5] (K. pneumoniae ATCC 13883 sensitive, value in parentheses, MHA, 18 h 37°C, 99.9% reduction); 25 µM in data set [6] (ATCC 700603, 18 h); 115 µg/mL in data set [6] (K. pneumoniae ATCC 700603 resistant, MHA, 18 h 37°C, 99.9% reduction). Besides, the MBC in data set [6] (K. pneumoniae ATCC 700603 resistant, MHA, 18 h 37°C, 99.9% reduction, listed as tetrameric) is given as at least 115 µg/mL; in data set [6] (K. pneumoniae ATCC 700603 resistant, value in parentheses, MHA, 18 h 37°C, 99.9% reduction) it was at least 25 µM; in data set [7] (ATCC 25923, 18 h), 12.5 µM; in data set [7] (S. aureus ATCC 25923 sensitive, MHA, 18 h 37°C, 99.9% reduction, average of four independent experiments) it was 57 µg/mL; in [7] (S. aureus ATCC 25923 sensitive, MHA, 18 h 37°C, 99.9% reduction, average of four independent experiments, listed as tetrameric) it was at least 57 µg/mL; in data set [7] (S. aureus ATCC 25923 sensitive, value in parentheses, MHA, 18 h 37°C, 99.9% reduction), at least 12.5 µM. The MBC in data set [8] (ATCC 33591, 18 h) is listed as 12.5 µM; in data set [8] (S. aureus ATCC 33591 resistant, MHA, 18 h 37°C, 99.9% reduction), 57 µg/mL; in data set [8] (S. aureus ATCC 33591 resistant, MHA, 18 h 37°C, 99.9% reduction, listed as tetrameric) it was at least 57 µg/mL; in data set [8] (S. aureus ATCC 33591 resistant, value in parentheses, MHA, 18 h 37°C, 99.9% reduction), at least 12.5 µM. In addition, the “MBC as a function of the MBC of the tetrameric peptide” value in data set [5] (K. pneumoniae sensitive strain, from concentrations in μg/mL) is reported as 1 x MBC; in data set [6] (K. pneumoniae resistant strain, from concentrations in μg/mL), 1 x MBC; in data set [7] (S. aureus sensitive strain, from concentrations in μg/mL), 1 x MBC; in [8] (S. aureus resistant strain, from concentrations in μg/mL), 1 x MBC.
For the compound `CSCC[C@H](NC(=O)[C@H](CCCNC(=N)N)NC(=O)[C@H](Cc1c[nH]c2ccccc12)NC(=O)[C@H](CCC(N)=O)NC(=O)[C@H](Cc1c[nH]c2ccccc12)NC(=O)[C@H](CCCNC(=N)N)NC(=O)[C@H](CCCNC(=N)N)NC(=O)[C@H](CS)NC(=O)[C@H](CCCCN)NC(=O)[C@@H](N)Cc1ccccc1)C(=O)N[C@@H](CCCCN)C(=O)N[C@@H](CCCCN)C(=O)N[C@@H](CC(C)C)C(=O)NCC(=O)N[C@@H](C)C(N)=O` [LfcinB reference, reference compound], the MIC in data set [3] (ATCC 25923, 24 h) is listed as over 200 µM. Further, the MBC in data set [5] (ATCC 13883, 18 h) is reported as over 200 µM; in [6] (ATCC 700603, 18 h), over 200 µM; in data set [7] (ATCC 25923, 18 h) it was over 200 µM; in [8] (ATCC 33591, 18 h), 100 µM.
Regarding RRWQWR-NH2 [Motif], the MBC in [5] (ATCC 13883, 18 h) was over 200 µM; in data set [6] (ATCC 700603, 18 h), over 200 µM; in data set [7] (ATCC 25923, 18 h), over 200 µM. Moreover, in the data set with human erythrocytes, the “haemolysis activity over the concentrations tested” value is “no haemolysis activity”.
